Laboratory results taken from US8691865B2 (AbbVie Inc., priority 2008, dated 2014).

Each compound was assayed against human Cav2.2 (Homo sapiens, UniProt Q00975) (assay: Assessment of calcium channel activity using FLIPR (Ca2+ influx in IMR32 cells)). Details: not given.
Format: cell-based
In short: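 IC50 values derive from nonlinear sigmoidal fitting of percent inhibition, relative to inhibitor-free activity, of Ca2+ influx read by FLIPR. Cells were IMR32 human neuroblastoma, plated at 1−1.2×10^5 per well and grown 48 h at 37 °C.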

human Cav2.2, sequence (Q00975 whole entry): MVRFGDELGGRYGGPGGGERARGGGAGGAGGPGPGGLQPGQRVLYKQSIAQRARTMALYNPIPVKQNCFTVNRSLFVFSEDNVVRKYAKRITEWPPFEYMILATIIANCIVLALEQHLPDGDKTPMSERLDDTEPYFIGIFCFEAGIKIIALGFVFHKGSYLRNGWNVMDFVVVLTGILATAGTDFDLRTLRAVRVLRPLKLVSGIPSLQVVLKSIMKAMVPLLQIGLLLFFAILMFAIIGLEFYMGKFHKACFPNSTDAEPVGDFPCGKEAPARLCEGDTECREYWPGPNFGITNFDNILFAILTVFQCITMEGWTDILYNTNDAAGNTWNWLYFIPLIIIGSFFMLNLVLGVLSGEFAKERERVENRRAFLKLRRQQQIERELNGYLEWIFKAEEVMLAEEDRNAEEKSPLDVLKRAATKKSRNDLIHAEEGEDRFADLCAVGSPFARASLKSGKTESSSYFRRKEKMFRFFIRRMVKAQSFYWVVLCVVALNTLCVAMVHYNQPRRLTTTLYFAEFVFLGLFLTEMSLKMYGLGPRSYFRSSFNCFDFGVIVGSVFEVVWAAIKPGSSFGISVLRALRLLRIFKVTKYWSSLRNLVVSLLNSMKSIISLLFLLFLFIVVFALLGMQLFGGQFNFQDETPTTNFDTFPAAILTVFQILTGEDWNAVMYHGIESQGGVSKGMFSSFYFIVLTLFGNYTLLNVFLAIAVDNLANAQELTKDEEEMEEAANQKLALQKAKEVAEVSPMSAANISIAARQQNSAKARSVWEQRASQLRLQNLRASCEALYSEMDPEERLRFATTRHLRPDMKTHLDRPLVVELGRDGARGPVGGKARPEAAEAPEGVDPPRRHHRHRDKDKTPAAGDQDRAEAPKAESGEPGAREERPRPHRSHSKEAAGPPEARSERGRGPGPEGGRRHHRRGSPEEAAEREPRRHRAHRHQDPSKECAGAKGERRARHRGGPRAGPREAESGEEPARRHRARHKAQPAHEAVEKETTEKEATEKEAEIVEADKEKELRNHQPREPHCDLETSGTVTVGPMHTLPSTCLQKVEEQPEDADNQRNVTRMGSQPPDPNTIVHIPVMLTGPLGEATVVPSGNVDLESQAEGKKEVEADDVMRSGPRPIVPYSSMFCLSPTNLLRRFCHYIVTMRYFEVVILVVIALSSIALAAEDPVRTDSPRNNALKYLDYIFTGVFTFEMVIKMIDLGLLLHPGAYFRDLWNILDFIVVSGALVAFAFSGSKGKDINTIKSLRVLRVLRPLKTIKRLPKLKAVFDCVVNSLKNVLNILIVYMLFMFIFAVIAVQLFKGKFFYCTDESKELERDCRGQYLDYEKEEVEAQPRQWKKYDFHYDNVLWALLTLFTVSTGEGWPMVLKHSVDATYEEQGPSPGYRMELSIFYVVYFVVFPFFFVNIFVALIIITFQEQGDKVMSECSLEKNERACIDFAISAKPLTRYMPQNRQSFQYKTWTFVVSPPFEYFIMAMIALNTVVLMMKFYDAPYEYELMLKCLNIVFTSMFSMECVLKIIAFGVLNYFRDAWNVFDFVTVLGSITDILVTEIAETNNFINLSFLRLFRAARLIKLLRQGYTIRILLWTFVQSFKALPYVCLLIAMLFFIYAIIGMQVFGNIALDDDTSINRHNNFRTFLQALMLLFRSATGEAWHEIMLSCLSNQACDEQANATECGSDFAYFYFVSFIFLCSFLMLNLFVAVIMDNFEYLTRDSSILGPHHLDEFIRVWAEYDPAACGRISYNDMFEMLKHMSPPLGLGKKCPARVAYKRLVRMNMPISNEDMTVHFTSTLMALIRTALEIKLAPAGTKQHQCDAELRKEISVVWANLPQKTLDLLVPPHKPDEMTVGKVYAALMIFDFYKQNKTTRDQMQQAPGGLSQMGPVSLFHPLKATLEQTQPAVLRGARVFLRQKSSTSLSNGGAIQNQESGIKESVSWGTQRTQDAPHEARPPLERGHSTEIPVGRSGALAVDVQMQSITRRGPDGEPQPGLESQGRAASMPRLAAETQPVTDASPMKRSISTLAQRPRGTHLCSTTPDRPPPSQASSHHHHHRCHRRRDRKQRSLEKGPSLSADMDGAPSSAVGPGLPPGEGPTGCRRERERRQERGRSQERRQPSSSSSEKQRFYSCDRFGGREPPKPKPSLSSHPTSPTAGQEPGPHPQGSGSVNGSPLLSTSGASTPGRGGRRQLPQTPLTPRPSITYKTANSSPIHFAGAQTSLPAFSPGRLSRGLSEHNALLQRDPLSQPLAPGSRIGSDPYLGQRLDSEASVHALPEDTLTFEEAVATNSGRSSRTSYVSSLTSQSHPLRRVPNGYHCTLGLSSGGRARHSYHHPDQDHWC
human Cav2.2, sequence (P54289 25-956 partner limits assumed): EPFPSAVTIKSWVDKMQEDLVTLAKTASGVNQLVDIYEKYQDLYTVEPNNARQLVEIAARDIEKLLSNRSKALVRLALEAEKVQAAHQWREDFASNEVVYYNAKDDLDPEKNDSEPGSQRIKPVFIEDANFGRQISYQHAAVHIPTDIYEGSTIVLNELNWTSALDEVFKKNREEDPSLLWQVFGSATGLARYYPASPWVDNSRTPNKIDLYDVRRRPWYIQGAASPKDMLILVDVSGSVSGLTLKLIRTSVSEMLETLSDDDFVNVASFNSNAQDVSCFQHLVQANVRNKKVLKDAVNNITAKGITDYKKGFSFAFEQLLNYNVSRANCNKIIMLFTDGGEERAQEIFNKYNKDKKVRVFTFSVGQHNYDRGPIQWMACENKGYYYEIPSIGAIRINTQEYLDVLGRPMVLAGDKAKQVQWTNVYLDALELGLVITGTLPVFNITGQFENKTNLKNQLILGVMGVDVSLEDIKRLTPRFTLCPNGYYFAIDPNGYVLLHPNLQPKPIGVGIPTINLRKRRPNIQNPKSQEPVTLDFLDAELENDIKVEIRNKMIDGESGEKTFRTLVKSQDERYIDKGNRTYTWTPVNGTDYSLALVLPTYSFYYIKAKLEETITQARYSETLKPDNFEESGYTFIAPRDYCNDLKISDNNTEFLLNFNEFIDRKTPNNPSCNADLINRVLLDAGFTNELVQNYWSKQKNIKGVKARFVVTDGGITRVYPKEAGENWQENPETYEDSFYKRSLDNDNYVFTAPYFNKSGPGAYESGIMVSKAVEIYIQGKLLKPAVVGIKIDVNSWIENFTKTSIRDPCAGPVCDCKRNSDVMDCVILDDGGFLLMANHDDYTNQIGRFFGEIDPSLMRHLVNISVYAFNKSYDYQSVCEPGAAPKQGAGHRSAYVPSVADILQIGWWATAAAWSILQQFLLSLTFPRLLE
human Cav2.2, sequence (P54289 957-1103 partner limits assumed): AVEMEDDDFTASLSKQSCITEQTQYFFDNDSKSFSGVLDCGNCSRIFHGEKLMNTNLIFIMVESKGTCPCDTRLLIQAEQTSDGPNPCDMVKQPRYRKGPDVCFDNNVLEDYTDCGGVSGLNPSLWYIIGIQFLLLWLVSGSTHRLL
human Cav2.2, sequence (P54284 whole entry partner): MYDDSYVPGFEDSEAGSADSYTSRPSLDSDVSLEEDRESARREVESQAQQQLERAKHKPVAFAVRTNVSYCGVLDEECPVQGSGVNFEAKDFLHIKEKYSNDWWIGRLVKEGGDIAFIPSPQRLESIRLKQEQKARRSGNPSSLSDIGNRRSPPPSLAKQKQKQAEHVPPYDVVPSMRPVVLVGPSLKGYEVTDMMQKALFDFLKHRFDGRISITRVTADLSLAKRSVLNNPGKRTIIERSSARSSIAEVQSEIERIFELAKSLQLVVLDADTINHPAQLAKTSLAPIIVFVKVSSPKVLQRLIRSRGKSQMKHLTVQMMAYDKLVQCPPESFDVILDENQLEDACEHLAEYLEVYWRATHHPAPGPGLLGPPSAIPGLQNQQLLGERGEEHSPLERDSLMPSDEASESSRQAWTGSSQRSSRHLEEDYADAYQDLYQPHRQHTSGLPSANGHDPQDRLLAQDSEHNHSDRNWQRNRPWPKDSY

SMILES	IC50 [µM]
CC(C)(C)C[C@H](N)C(=O)N[C@H]1CC[C@@H]2CN(C(=O)[C@@H](N)CC(C)(C)C)C[C@@H]21 [Example 464, 4-methyl-N^1-[(3aR,4S,6aS)-2-(4-methyl-L-leucyl)octahydrocyclopenta[c]pyrrol-4-yl]-L-leucinamide]	> 30
Cc1cnc(C(=O)N[C@H]2CC[C@@H]3CN(c4cccc(C(F)(F)F)n4)C[C@@H]32)cn1 [Example 579, 5-methyl-N-{(3aR,4S,6aS)-2-[6-(trifluoromethyl)pyridin-2-yl]octahydrocyclopenta[c]pyrrol-4-yl}pyrazine-2-carboxamide]	2.63
CN[C@@H](Cc1ccccc1)C(=O)N[C@H]1CC[C@@H]2CN(S(=O)(=O)c3ccc(C(F)(F)F)cc3Cl)C[C@@H]21 [Example 432]	1.66
CC(C)C[C@@H](O)C(=O)N[C@H]1CC[C@@H]2CN(c3cccc(C(F)(F)F)n3)C[C@@H]21 [Example 578, (2R)-2-hydroxy-4-methyl-N-{(3aR,4S,6aS)-2-[6-(trifluoromethyl)pyridin-2-yl]octahydrocyclopenta[c]pyrrol-4-yl}pentanamide]	1
CCC[C@H](NCC(C)(C)C)C(=O)N[C@H]1CC[C@@H]2CN(S(=O)(=O)c3ccc(C(F)(F)F)cc3)C[C@@H]21 [Example 257, N^2-neopentyl-N^1-((3aR,4S,6aS)-2-{[4-(trifluoromethyl)phenyl]sulfonyl}octahydrocyclopenta[c]pyrrol-4-yl)-L-norvalinamide]	0.7
CCC[C@H](NC(C)C)C(=O)N[C@@H]1CC[C@H]2CN(Cc3ccccc3)C[C@H]21 [Example 495, N^1-[(3aS,4R,6aR)-2-benzyloctahydrocyclopenta[c]pyrrol-4-yl]-N^2-isopropyl-L-norvalinamide]	> 30

The remaining lines, values ahead:

IC50 [µM]	SMILES
4.47	O=C(N[C@H]1CC[C@@H]2CN(c3cccc(C(F)(F)F)n3)C[C@@H]21)[C@@H]1C[C@H](F)CN1 [Example 596, (4S)-4-fluoro-N-{(3aR,4S,6aS)-2-[6-(trifluoromethyl)pyridin-2-yl]octahydrocyclopenta[c]pyrrol-4-yl}-L-prolinamide]
1.45	CC(C)N[C@H]1CC[C@@H]2CN(c3cccc(C(F)(F)F)n3)C[C@@H]21 [Example 609, (3aR,4S,6aS)-N-isopropyl-2-[6-(trifluoromethyl)pyridin-2-yl]octahydrocyclopenta[c]pyrrol-4-amine]
2.22	O=C(N[C@H]1CC[C@@H]2CN(c3ccc(C(F)(F)F)cn3)C[C@@H]21)[C@@H]1C[C@@H]2CCCC[C@@H]2N1 [Example 603, (2S,3aS,7aS)-N-{(3aR,4S,6aS)-2-[5-(trifluoromethyl)pyridin-2-yl]octahydrocyclopenta[c]pyrrol-4-yl}octahydro-1H-indole-2-carboxamide]
6.85	O=C(N[C@H]1CC[C@@H]2CN(c3ccccc3Cl)C[C@@H]21)[C@@H]1C[C@@H](F)CN1 [Example 659, (4R)-N-[(3aR,4S,6aS)-2-(2-chlorophenyl)octahydrocyclopenta[c]pyrrol-4-yl]-4-fluoro-L-prolinamide]
> 30	COc1ccccc1N1C[C@H]2CC[C@H](NC(=O)[C@@H]3C[C@@H](F)CN3)[C@H]2C1 [Example 662, (4R)-4-fluoro-N-[(3aR,4S,6aS)-2-(2-methoxyphenyl)octahydrocyclopenta[c]pyrrol-4-yl]-L-prolinamide]
3.35	O=S(=O)(N[C@H]1CC[C@@H]2CN(c3cccc(C(F)(F)F)n3)C[C@@H]21)c1ccccc1 [Example 708, N-{(3aR,4S,6aS)-2-[6-(trifluoromethyl)pyridin-2-yl]octahydrocyclopenta[c]pyrrol-4-yl}benzenesulfonamide]
1.52	O=C(N[C@H]1CC[C@@H]2CN(c3ccc(F)cc3C(F)(F)F)C[C@@H]21)[C@@H]1C[C@@H](F)CN1 [Example 698, (4R)-4-fluoro-N-{(3aR,4S,6aS)-2-[4-fluoro-2-(trifluoromethyl)phenyl]octahydrocyclopenta[c]pyrrol-4-yl}-L-prolinamide]
3.77	CN[C@@H](CC(C)C)C(=O)N[C@H]1CC[C@@H]2CN(c3ccc(C#N)cc3)C[C@@H]21 [Example 647, N-[(3aR,4S,6aS)-2-(4-cyanophenyl)octahydrocyclopenta[c]pyrrol-4-yl]-N^2-methyl-L-leucinamide]
1.66	FC(F)(F)c1cccc(N2C[C@H]3CC[C@H](NCc4c[nH]c5ccc(Cl)cc45)[C@H]3C2)n1 [Example 680, (3aR,4S,6aS)-N-[(5-chloro-1H-indol-3-yl)methyl]-2-[6-(trifluoromethyl)pyridin-2-yl]octahydrocyclopenta[c]pyrrol-4-amine]
13	CCC[C@H](NC)C(=O)N[C@H]1CC[C@@H]2CN(c3ccc(C(F)(F)F)cc3)C[C@@H]21 [Example 759, N^2-methyl-N-{(3aR,4S,6aS)-2-[4-(trifluoromethyl)phenyl]octahydrocyclopenta[c]pyrrol-4-yl}-L-norvalinamide]
0.59	O=S(=O)(c1cccc(C(F)(F)F)c1)N1C[C@H]2CC[C@H](NCc3cc4cc(F)ccc4[nH]3)[C@H]2C1 [Example 650, (3aR,4S,6aS)-N-[(5-fluoro-1H-indol-2-yl)methyl]-2-{[3-(trifluoromethyl)phenyl]sulfonyl}octahydrocyclopenta[c]pyrrol-4-amine]
0.92	CN[C@@H](CC(C)C)C(=O)N[C@H]1CC[C@@H]2CN(c3cccc(C(F)(F)F)c3F)C[C@@H]21 [Example 635, N-{(3aR,4S,6aS)-2-[2-fluoro-3-(trifluoromethyl)phenyl]octahydrocyclopenta[c]pyrrol-4-yl}-N^2-methyl-L-leucinamide]

Same assay, conditions: read-out: IC50 (μM) or percent inhibition (* indicates 3 minute incubation, otherwise 60 minute); IC50; 60 minute pre-incubation with compound; IMR32 cells, 80 mM KCl depolarization

IC50 [µM]	SMILES
1.59	CC(C)[C@@H](CC(=O)N[C@H]1CC[C@@H]2CN(S(=O)(=O)c3cccc(C(F)(F)F)c3)C[C@@H]21)N(C)C [Example 498, (3R)-3-(dimethylamino)-4-methyl-N-((3aR,4S,6aS)-2-{[3-(trifluoromethyl)phenyl]sulfonyl}octahydrocyclopenta[c]pyrrol-4-yl)pentanamide]
3.26	O=C(N[C@H]1CC[C@H]2CN(Cc3cccnc3)C[C@H]21)C(C1CCCCC1)C1CCCCC1 [Example 73, 2,2-dicyclohexyl-N-[(3aS,4S,6aR)-2-(pyridin-3-ylmethyl)octahydrocyclopenta[c]pyrrol-4-yl]acetamide]
1.49	CC(C)C(C(=O)N[C@H]1CC[C@@H]2CN(Cc3ccccc3)C[C@@H]21)c1ccc(Cl)cc1 (stereo partly drawn) [Example 43, N-[(3aR,4S,6aS)-2-benzyloctahydrocyclopenta[c]pyrrol-4-yl]-2-(4-chlorophenyl)-3-methylbutanamide]
1.83	CC(C)C[C@H](NC(=O)NC(C)(C)C)C(=O)N[C@@H]1CC[C@H]2CN(Cc3cccc(C(F)(F)F)c3)C[C@H]21 [Example 180, N^2-[(tert-butylamino)carbonyl]-N^1-{(3aS,4R,6aR)-2-[3-(trifluoromethyl)benzyl]octahydrocyclopenta[c]pyrrol-4-yl}-L-leucinamide]
1.71	CCC[C@H](NC1CCCC1)C(=O)N[C@H]1CC[C@@H]2CN(S(=O)(=O)c3ccc(C(F)(F)F)cc3)C[C@@H]21 [Example 506, N^2-cyclopentyl-N^1-((3aR,4S,6aS)-2-{[4-(trifluoromethyl)phenyl]sulfonyl}octahydrocyclopenta[c]pyrrol-4-yl)-L-norvalinamide]
8.6	CN[C@@H](CC(C)C)C(=O)N[C@H]1CC[C@@H]2CN(Cc3cccc(C(F)(F)F)c3)C[C@@H]21 [Example 379, N^2-methyl-N^1-{(3aR,4S,6aS)-2-[3-(trifluoromethyl)benzyl]octahydrocyclopenta[c]pyrrol-4-yl}-L-leucinamide]
1.63	CC(C)C(C(=O)N[C@H]1CC[C@@H]2CN(Cc3cccc(Cl)c3)C[C@@H]21)c1ccccc1 (stereo partly drawn) [Example 86, N-[(3aR,4S,6aS)-2-(3-chlorobenzyl)octahydrocyclopenta[c]pyrrol-4-yl]-3-methyl-2-phenylbutanamide]
1.01	O=S(=O)(N[C@@H]1CC[C@H]2CN(Cc3cccc(C(F)(F)F)c3)C[C@H]21)c1cccc(C(F)(F)F)c1 [Example 189, 3-(trifluoromethyl)-N-{(3aS,4R,6aR)-2-[3-(trifluoromethyl)benzyl]octahydrocyclopenta[c]pyrrol-4-yl}benzenesulfonamide]
8.38	CCC[C@H](NCC(C)(C)C)C(=O)N[C@@H]1CC[C@H]2CN(Cc3ccccc3)C[C@H]21 [Example 246, N^1-[(3aS,4R,6aR)-2-benzyloctahydrocyclopenta[c]pyrrol-4-yl]-N^2-neopentyl-L-norvalinamide]
9.75	CC[C@H](C(=O)N[C@@H]1CC[C@H]2CN(Cc3ccccc3)C[C@H]21)c1ccccc1 [Example 16, (2S)-N-[(3aS,4R,6aR)-2-benzyloctahydrocyclopenta[c]pyrrol-4-yl]-2-phenylbutanamide]
9.26	CN[C@@H](CC(C)C)C(=O)N[C@@H]1CC[C@H]2CN(Cc3ccc(F)cc3)C[C@H]21 [Example 450, N^1-[(3aS,4R,6aR)-2-(4-fluorobenzyl)octahydrocyclopenta[c]pyrrol-4-yl]-N^2-methyl-L-leucinamide]
0.62	CC(C)C[C@@H](NC(=O)OC(C)(C)C)C(=O)N[C@@H]1CC[C@H]2CN(Cc3cccc(C(F)(F)F)c3)C[C@H]21 (relative stereo) [Example 149, N^2-(tert-butyloxycarbonyl)-N^1-{(3aS*,4R*,6aR*)-2-[3-(trifluoromethyl)benzyl]octahydrocyclopenta[c]pyrrol-4-yl}-D-leucinamide]
12.4	CN[C@@H](CC(C)C)C(=O)N[C@@H]1CC[C@H]2CN(S(=O)(=O)c3ccccc3)C[C@H]21 [Example 448, N^2-methyl-N^1-[(3aS,4R,6aR)-2-(phenylsulfonyl)octahydrocyclopenta[c]pyrrol-4-yl]-L-leucinamide]
2.73	CCC[C@H](NC)C(=O)N[C@H]1CC[C@@H]2CN(S(=O)(=O)Cc3ccc(C(F)(F)F)cc3)C[C@@H]21 [Example 549, N^2-methyl-N^1-((3aR,4S,6aS)-2-{[4-(trifluoromethyl)benzyl]sulfonyl}octahydrocyclopenta[c]pyrrol-4-yl)-L-norvalinamide]
